Molecular target: Focal adhesion kinase 1 (Homo sapiens, UniProt Q05397)
Sequence (Q05397 whole entry): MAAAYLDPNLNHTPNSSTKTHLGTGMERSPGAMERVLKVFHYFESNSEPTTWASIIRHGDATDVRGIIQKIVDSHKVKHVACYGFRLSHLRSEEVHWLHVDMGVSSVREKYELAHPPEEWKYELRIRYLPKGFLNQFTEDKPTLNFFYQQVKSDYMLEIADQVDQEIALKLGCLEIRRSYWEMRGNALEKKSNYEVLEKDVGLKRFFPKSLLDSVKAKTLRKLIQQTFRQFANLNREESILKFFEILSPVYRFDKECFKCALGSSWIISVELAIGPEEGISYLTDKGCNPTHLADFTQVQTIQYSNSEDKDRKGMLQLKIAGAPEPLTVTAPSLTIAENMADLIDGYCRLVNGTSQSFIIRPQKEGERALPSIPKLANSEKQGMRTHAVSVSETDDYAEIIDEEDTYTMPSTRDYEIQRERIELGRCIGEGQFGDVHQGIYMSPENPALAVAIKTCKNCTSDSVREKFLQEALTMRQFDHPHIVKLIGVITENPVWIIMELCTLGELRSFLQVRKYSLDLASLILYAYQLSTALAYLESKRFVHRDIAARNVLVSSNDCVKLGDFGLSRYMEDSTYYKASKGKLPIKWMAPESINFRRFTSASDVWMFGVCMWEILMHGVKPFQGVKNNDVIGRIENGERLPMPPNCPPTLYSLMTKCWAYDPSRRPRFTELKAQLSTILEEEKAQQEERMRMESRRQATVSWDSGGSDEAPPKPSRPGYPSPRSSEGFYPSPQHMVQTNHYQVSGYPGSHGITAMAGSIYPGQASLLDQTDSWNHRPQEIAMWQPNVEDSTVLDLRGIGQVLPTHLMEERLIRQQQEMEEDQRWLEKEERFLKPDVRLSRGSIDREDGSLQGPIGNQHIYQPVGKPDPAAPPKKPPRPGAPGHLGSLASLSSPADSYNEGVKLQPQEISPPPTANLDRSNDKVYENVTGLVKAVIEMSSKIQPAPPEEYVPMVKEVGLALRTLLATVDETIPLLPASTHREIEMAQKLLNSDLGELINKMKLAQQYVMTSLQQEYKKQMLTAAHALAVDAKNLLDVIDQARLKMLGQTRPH

Row | SMILES | IC50
1 | COc1cc(Nc2ncc3ccn(-c4ccccn4)c3n2)cc(OC)c1OC | 212 nM
2 | COc1cc(Nc2ncc3ccn(-c4cccc(CCC(=O)O)n4)c3n2)cc(OC)c1OC | 4 nM

From ChEMBL document CHEMBL1147704, “Design and synthesis of 7H-pyrrolo[2,3-d]pyrimidines as focal adhesion kinase inhibitors. Part 2” (Bioorg Med Chem Lett, 2006)
